# Results taken from US20080293771A1, “AZACYCLYLBENZAMIDE DERIVATIVES AS HISTAMINE-3 ANTAGONISTS” (Wyeth, priority 2007, published 2008).
# Counter-ions that a name gives are not always drawn.
# Target: T1, Human Histamine H3 Receptor (Homo sapiens, UniProt Q9Y5N1)
# T1 construct: expressed in transfected cells; host or cells: HEK293T (stably transfected; membrane preparation)
# Test: Methyl histamine binding in Human Histamine H3 Receptor Cell Line
# Settings: read-out: hH3 Binding Ki
# Method: Evaluation of Methyl histamine binding in Human Histamine H3 Receptor Cell Line
# The affinity of test compounds for the histamine 3 (H3) receptor is evaluated in the following manner. […] Cells are scraped from the plate, transferred to centrifuge tubes, washed one time in PBS by centrifugation in a Sorvall RT7 Plus centrifuge (2000 rpm 10 minutes, 4° C.). The resulting pellets are stored at −80° C. until ready for use. Cells are re-suspended in buffer (50 mM Tris pH=7.5) and placed in a Dounce homogenizer, douncing ten times to homogenize cells. The homogenate is spun down by centrifugation (Sorvall RT7 Plus, 1800 rpm 10 minutes, 4° C.). The supernatant is placed in a Corex tube and spun down by centrifugation (Sorvall RC 5c Plus, 17,000 rpm 20 minutes, 4° C.). The pellet is resuspended in buffer (50 mM Tris, pH 7.5). Protein concentration (ug/ul) is determined using the Micro-BCA Protein Determination. The binding assay is set up in a 96 well microtiter plate in a total volume of 250 uL. Non-specific binding is determined in the presence of 10 uM clobenpropit. The final radioligand concentration is 1 nM. The test compound is serially diluted using the Beckman Biomek2000 to a final approximate range of 100 uM to 100 pM. Membranes are suspended in buffer, homogenized in 2 bursts of ten seconds using a Vitris mechanical homogenizer set at power setting 5. Ten μg of membranes are added to each well. Following a one hour incubation at 30° C., the reaction is terminated by the addition of ice cold buffer and rapid filtration with a Packard Filtermate Harvester through a GF/B filter pre-soaked with 1% PEI for one hour. The plate is dried for one hour at 37° C. and 60 μL Microscint Scintillant is added to each well. The CPM per well is measured on a Packard Top Count NXT. Ki values are determined in nM. […] CPM values are expressed as % specific binding and plotted vs compound concentration. A curve is fitted using a four-parameter logistic fit and the IC50 value is determined. The Ki is calculated from this using the Cheng-Prusoff equation: […]=IC50/1+(L/Kd) where L=concentration of free radioligand used in the assay, and Kd is the dissociation constant of the radioligand for the receptor. L is determined for each experiment by counting an aliquot of the diluted radioligand (corresponding to that added to each well) and the Kd has previously been determined under identical conditions for this cell line/radioligand.
# T1 sequence (Q9Y5N1 whole entry): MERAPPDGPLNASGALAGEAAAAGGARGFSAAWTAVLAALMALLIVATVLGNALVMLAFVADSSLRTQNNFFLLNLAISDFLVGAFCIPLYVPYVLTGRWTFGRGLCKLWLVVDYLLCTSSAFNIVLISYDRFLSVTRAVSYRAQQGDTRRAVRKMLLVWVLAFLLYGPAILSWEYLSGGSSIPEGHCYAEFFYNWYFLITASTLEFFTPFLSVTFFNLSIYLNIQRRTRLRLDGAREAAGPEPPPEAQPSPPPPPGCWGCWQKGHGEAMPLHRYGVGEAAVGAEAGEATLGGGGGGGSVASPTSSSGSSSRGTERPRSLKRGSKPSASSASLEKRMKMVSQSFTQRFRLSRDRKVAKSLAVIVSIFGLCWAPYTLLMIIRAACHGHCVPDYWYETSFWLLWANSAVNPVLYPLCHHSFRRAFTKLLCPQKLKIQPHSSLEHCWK
row,Ki [nM],SMILES
1,> 100,"CN(C(=O)c1ccc(Cn2cnc3ccccc32)cc1)[C@@H]1CCNC1 [Example 36, (R)-4-((1H-benzo[d]imidazol-1-yl)methyl)-N-methyl-N-(pyrrolidin-3-yl)benzamide Hydrochloride]"
2,10.1 to 50,"Cc1nc2ccccc2n1Cc1ccc(C(=O)N(C)[C@@H]2CCN(C3CCCCC3)C2)cc1 [Example 40, N-[(3R)-1-cyclohexylpyrrolidin-3-yl]-N-methyl-4-[(2-methyl-1H-benzimidazol-1-yl)methyl]benzamide]"
3,50.1 to 100,"Cc1nc2ccccc2n1Cc1ccc(C(=O)N(C)C2CCN(C(C)C)CC2)cc1 [Example 46, N-(1-isopropylpiperidin-4-yl)-N-methyl-4-[(2-methyl-1H-benzimidazol-1-yl)methyl]benzamide]"
4,> 100,"Cc1nc2ccccc2n1Cc1ccc(C(=O)N(C)C2CCN(C3CCC3)CC2)cc1 [Example 47, N-(1-cyclobutylpiperidin-4-yl)-N-methyl-4-[(2-methyl-1H-benzimidazol-1-yl)methyl]benzamide]"
5,> 100,"Cc1nc2ccccc2n1Cc1ccc(C(=O)N(C)C2CCN(C3CCCC3)CC2)cc1 [Example 48, N-(1-cyclopentylpiperidin-4-yl)-N-methyl-4-[(2-methyl-1H-benzimidazol-1-yl)methyl]benzamide]"
6,50.1 to 100,"CC(C)N1CCC(N(C)C(=O)c2ccc(Cn3cnc4ccccc43)cc2)CC1 [Example 49, 4-(1H-benzimidazol-1-ylmethyl)-N-(1-isopropylpiperidin-4-yl)-N-methylbenzamide]"
7,> 100,"CN(C(=O)c1ccc(Cn2cnc3ccccc32)cc1)C1CCN(C2CCC2)CC1 [Example 50, 4-(1H-benzimidazol-1-ylmethyl)-N-(1-cyclobutylpiperidin-4-yl)-N-methylbenzamide]"
8,> 100,"CN(C(=O)c1ccc(Cn2cnc3ccccc32)cc1)C1CCN(C2CCCC2)CC1 [Example 51, 4-(1H-benzimidazol-1-ylmethyl)-N-(1-cyclopentylpiperidin-4-yl)-N-methylbenzamide]"
9,≤ 10,"Cc1nc2cc(C#N)ccc2n1-c1ccc(C(=O)N(C)[C@@H]2CCN(C(C)C)C2)cc1 [Example 54, 4-(5-cyano-2-methyl-1H-benzimidazol-1-yl)-N-[(3R)-1-isopropylpyrrolidin-3-yl]-N-methylbenzamide]"
10,≤ 10,"Cc1nc2cc(C#N)ccc2n1-c1ccc(C(=O)N(C)[C@@H]2CCN(C3CCC3)C2)cc1 [Example 55, 4-(5-cyano-2-methyl-1H-benzimidazol-1-yl)-N-[(3R)-1-cyclobutylpyrrolidin-3-yl]-N-methylbenzamide]"
11,10.1 to 50,"Cc1nc2cc(C#N)ccc2n1-c1ccc(C(=O)N(C)[C@@H]2CCN(C3CCCC3)C2)cc1 [Example 56, 4-(5-cyano-2-methyl-1H-benzimidazol-1-yl)-N-[(3R)-1-cyclopentylpyrrolidin-3-yl]-N-methylbenzamide]"
12,> 100,"CN(C(=O)c1ccc(-n2cc3ccccc3n2)cc1)[C@@H]1CCNC1 [Example 60a, (R)-4-Indazol-2-yl-N-methyl-N-pyrrolidin-3-yl-benzamide]"
13,> 100,"CN(C(=O)c1ccc(-n2ncc3ccccc32)cc1)[C@@H]1CCNC1 [Example 60b, (R)-4-Indazol-1-yl-N-methyl-N-pyrrolidin-3-yl-benzamide]"
14,≤ 10,"CC(C)N1CC[C@@H](N(C)C(=O)c2ccc(-n3cc4ccccc4n3)cc2)C1 [Example 61, 4-(2H-indazol-2-yl)-N-[(3R)-1-isopropylpyrrolidin-3-yl]-N-methylbenzamide]"
15,≤ 10,"CN(C(=O)c1ccc(-n2cc3ccccc3n2)cc1)[C@@H]1CCN(C2CCC2)C1 [Example 62, N-[(3R)-1-cyclobutylpyrrolidin-3-yl]-4-(2H-indazol-2-yl)-N-methylbenzamide]"
16,≤ 10,"CN(C(=O)c1ccc(-n2cc3ccccc3n2)cc1)[C@@H]1CCN(C2CCCC2)C1 [Example 63, N-[(3R)-1-cyclopentylpyrrolidin-3-yl]-4-(2H-indazol-2-yl)-N-methylbenzamide]"
17,≤ 10,"CC(C)N1CC[C@@H](N(C)C(=O)c2ccc(-n3ncc4ccccc43)cc2)C1 [Example 64, 4-(1H-indazol-1-yl)-N-[(3R)-1-isopropylpyrrolidin-3-yl]-N-methylbenzamide]"
18,≤ 10,"CN(C(=O)c1ccc(-n2ncc3ccccc32)cc1)[C@@H]1CCN(C2CCC2)C1 [Example 65, N-[(3R)-1-cyclobutylpyrrolidin-3-yl]-4-(1H-indazol-1-yl)-N-methylbenzamide]"

row,Ki [nM],SMILES
1,10.1 to 50,"CN(C(=O)c1ccc(-n2ncc3ccccc32)cc1)[C@@H]1CCN(C2CCCC2)C1 [Example 66, N-[(3R)-1-cyclopentylpyrrolidin-3-yl]-4-(1H-indazol-1-yl)-N-methylbenzamide]"
2,> 100,CN(C(=O)c1ccc(-n2ncc3ccccc32)cc1)C1CCNCC1 [Example 68]
3,50.1 to 100,"CC(C)N1CCC(N(C)C(=O)c2ccc(-n3cc4ccccc4n3)cc2)CC1 [Example 69, 4-(2H-indazol-2-yl)-N-(1-isopropylpiperidin-4-yl)-N-methylbenzamide]"
4,> 100,"CN(C(=O)c1ccc(-n2cc3ccccc3n2)cc1)C1CCN(C2CCC2)CC1 [Example 70, N-(1-cyclobutylpiperidin-4-yl)-4-(2H-indazol-2-yl)-N-methylbenzamide]"
5,> 100,"CN(C(=O)c1ccc(-n2cc3ccccc3n2)cc1)C1CCN(C2CCCC2)CC1 [Example 71, N-(1-cyclopentylpiperidin-4-yl)-4-(2H-indazol-2-yl)-N-methylbenzamide]"
6,50.1 to 100,"CC(C)N1CCC(N(C)C(=O)c2ccc(-n3ncc4ccccc43)cc2)CC1 [Example 72, 4-(1H-indazol-1-yl)-N-(1-isopropylpiperidin-4-yl)-N-methylbenzamide]"
7,> 100,"CN(C(=O)c1ccc(-n2ncc3ccccc32)cc1)C1CCN(C2CCC2)CC1 [Example 73, N-(1-cyclobutylpiperidin-4-yl)-4-(1H-indazol-1-yl)-N-methylbenzamide]"
8,> 100,"CN(C(=O)c1ccc(-n2ncc3ccccc32)cc1)C1CCN(C2CCCC2)CC1 [Example 74, N-(1-cyclopentylpiperidin-4-yl)-4-(1H-indazol-1-yl)-N-methylbenzamide]"
9,> 100,"CN(C(=O)c1ccc(Cn2ncc3ccccc32)cc1)[C@@H]1CCNC1 [Example 75, (R)-4-((1H-indazol-1-yl)methyl)-N-methyl-N-(pyrrolidin-3yl)benzamide]"
10,50.1 to 100,"CC(C)N1CC[C@@H](N(C)C(=O)c2ccc(Cn3ncc4ccccc43)cc2)C1 [Example 76, 4-(1H-indazol-1-ylmethyl)-N-[(3R)-1-isopropylpyrrolidin-3-yl]-N-methylbenzamide]"
11,10.1 to 50,"CN(C(=O)c1ccc(Cn2ncc3ccccc32)cc1)[C@@H]1CCN(C2CCC2)C1 [Example 77, N-[(3R)-1-cyclobutylpyrrolidin-3-yl]-4-(1H-indazol-1-ylmethyl)-N-methylbenzamide]"
12,50.1 to 100,"CN(C(=O)c1ccc(Cn2ncc3ccccc32)cc1)[C@@H]1CCN(C2CCCC2)C1 [Example 78, N-[(3R)-1-cyclopentylpyrrolidin-3-yl]-4-(1H-indazol-1-ylmethyl)-N-methylbenzamide]"
13,50.1 to 100,"CC(C)N1CCC(N(C)C(=O)c2ccc(Cn3ncc4ccccc43)cc2)CC1 [Example 79, 4-(1H-indazol-1-ylmethyl)-N-(1-isopropylpiperidin-4-yl)-N-methylbenzamide]"
14,> 100,"CN(C(=O)c1ccc(Cn2ncc3ccccc32)cc1)C1CCN(C2CCC2)CC1 [Example 80, N-(1-cyclobutylpiperidin-4-yl)-4-(1H-indazol-1-ylmethyl)-N-methylbenzamide]"
15,> 100,"CN(C(=O)c1ccc(Cn2ncc3ccccc32)cc1)C1CCN(C2CCCC2)CC1 [Example 81, N-(1-cyclopentylpiperidin-4-yl)-4-(1H-indazol-1-ylmethyl)-N-methylbenzamide]"
16,> 100,"CC(C)N1CCC(N(C)C(=O)c2ccc(-n3cccn3)cc2)CC1 [Example 85, N-(1-isopropylpiperidin-4-yl)-N-methyl-4-(1H-pyrazol-1-yl)benzamide]"
17,> 100,"CN(C(=O)c1ccc(-n2cccn2)cc1)C1CCN(C2CCC2)CC1 [Example 86, N-(1-cyclobutylpiperidin-4-yl)-N-methyl-4-(1H-pyrazol-1-yl)benzamide]"
18,> 100,"CN(C(=O)c1ccc(-n2cccn2)cc1)C1CCN(C2CCCC2)CC1 [Example 87, N-(1-cyclopentylpiperidin-4-yl)-N-methyl-4-(1H-pyrazol-1-yl)benzamide]"
